Data taken from patent US10710992B2, “Substituted pyridinones as bromodomain inhibitors” (Zenith Epigenetics Ltd., priority 2014, dated 2020).

Columns and labels:
hIL-6 mRNA = test: Inhibition of hIL-6 mRNA transcription in LPS-stimulated U937 cells; type: cell-based; settings: Homo sapiens, U-937; PMA-differentiated U937 cells, 1 h pretreatment, LPS 1 ug/mL, 3 h; read-out: IL-6 activity
Description: Human leukemic monocyte lymphoma U937 cells (CRL-1593.2) were plated at a density of 3.2×10^4 cells per well in a 96-well plate in 100 μL RPMI-1640 containing 10% FBS and penicillin/streptomycin, and differentiated into macrophages for 3 days in 60 ng/mL PMA ([…]) at 37° C. in 5% CO2 prior to the addition of compound. The cells were pretreated for 1 h with increasing concentrations of test compound in 0.1% DMSO prior to stimulation with 1 ug/mL lipopolysaccharide from Escherichia coli. Triplicate wells were used for each concentration. The cells were incubated at 37° C., 5% CO2 for 3 h before the cells were harvested. At time of harvest, media was removed and cells were rinsed in 200 μL PBS. Cells were harvested using the mRNA Catcher PLUS kit according to manufacturer's instructions. The eluted mRNA was then used in a one-step quantitative real-time PCR reaction using components of the RNA UltraSense™ One-Step Kit (Life Technologies) together with Applied Biosystems TaqMan® primer-probes for hIL-6 and Cyclophilin. Real-time PCR plates were run on a ViiA™ 7 real time PCR machine (Applied Biosystems), data was analyzed, normalizing the Ct values for hIL-6 to an internal control, prior to determining the fold expression of each sample, relative to the control.

Human AML MV-4-11 cells = test: Inhibition of cell proliferation in cancer cell lines (CellTiter Aqueous One); type: cell-based; settings: MV4-11 cells, 72 h; for IC50: Homo sapiens
Description: MV4-11 cells (CRL-9591) were plated at a density of 5×10^4 cells per well in 96 well flat bottom plates and treated with increasing concentrations of test compound or DMSO (0.1%) in IMDM media containing 10% FBS and penicillin/streptomycin. Triplicate wells were used for each concentration and a well containing only media was used as a control. Plates were incubated at 37° C., 5% CO2 for 72 h before adding 20 μL of the CellTiter Aqueous One Solution (Promega) to each well and incubated at 37° C., 5% CO2 for an additional 3-4 h. The absorbance was read at 490 nm in a spectrophotometer and the percentage of cell titer relative to DMSO-treated cells was calculated after correcting for background by subtracting the blank well's signal. IC50 values were calculated using the GraphPad Prism software.

[1] = target: T1, Brd4 bromodomain 1 (BRD4(1)) (Homo sapiens, UniProt O60885); test: Inhibition of tetra-acetylated histone H4 binding to BET bromodomain (HTRF/FRET); settings: His-tagged bromodomain 200 nM, tetra-acetylated histone H4 peptide, 2 h room temperature
T1 construct: made in house; host or cells: E. coli BL21(DE3)
Description: Proteins were cloned and overexpressed with a N-terminal 6× His tag, then purified by nickel affinity followed by size exclusion chromatography. Briefly, E. coli BL21(DE3) cells were transformed with a recombinant expression vector encoding N-terminally Nickel affinity tagged bromodomains from Brd2, Brd3, Brd4. Cell cultures were incubated at 37° C. with shaking to the appropriate density and induced overnight with IPTG. The supernatant of lysed cells was loaded onto Ni-IDA column for purification. Eluted protein was pooled, concentrated and further purified by size exclusion chromatography. Fractions representing monomeric protein were pooled, concentrated, aliquoted, and frozen at −80° C. for use in subsequent experiments.
Binding of tetra-acetylated histone H4 and BET bromodomains was confirmed by a Homogenous Time Resolved Fluorescence Resonance Energy Transfer (HTRF®) method. N-terminally His-tagged bromodomains (200 nM) and biotinylated tetra-acetylated historic H4 peptide (25-50 nM, Millipore) were incubated in the presence of Europium Cryptate-labeled streptavidin (Cisbio Cat. #610SAKLB) and XL665-labeled monoclonal anti-His antibody (Cisbio Cat. #61HISXLB) in a white 96 well microtiter plate (Greiner). For inhibition assays, serially diluted test compound was added to these reactions in a 0.2% final concentration of DMSO. Duplicate wells were used for each concentration tested. Final buffer concentrations were 30 mM HEPES pH 7.4, 30 mM NaCl, 0.3 mM CHAPS, 20 mM phosphate pH 7.0, 320 mM KF, 0.08% BSA. After a 2 h incubation at room temperature, fluorescence was measured at 665 and 620 nm with a SynergyH4 plate reader (Biotek). The binding inhibitory activity was shown by a decrease in 665 nm relative to […] fluorescence. IC50 values were determined from a dose response curve.

[2] = system: c-myc in Human AML MV4-11 cells; test: Inhibition of cMYC expression in cancer cell lines (mRNA, real-time PCR); type: cell-based; settings: 3 h, cMYC mRNA normalized to Cyclophilin; for IC50: Homo sapiens
Description: MV4-11 cells (CRL-9591) were plated at a density of 2.5×10^4 cells per well in 96 well U-bottom plates and treated with increasing concentrations of test compound or DMSO (0.1%) in IMDM media containing 10% FBS and penicillin/streptomycin, and incubated for 3 h at 37° C. Triplicate wells were used for each concentration. Cells were pelleted by centrifugation and harvested using the mRNA Catcher PLUS kit according to manufacturer's instructions. The eluted mRNA isolated was then used in a one-step quantitative real-time PCR reaction, using components of the RNA UltraSense™ One-Step Kit (Life Technologies) together with Applied Biosystems TaqMan® primer-probes for cMYC and Cyclophilin. Real-time PCR plates were run on a ViiA™ 7 real time PCR machine (Applied Biosystems), data was analyzed, normalizing the Ct values for cMYC to an internal control, prior to determining the fold expression of each sample, relative to the control.

hIL-17 mRNA = test: Inhibition of hIL-17 mRNA transcription in OKT3-stimulated peripheral blood mononuclear cells; type: cell-based; settings: human PBMC, 1 h pretreatment, OKT3 antibody, 6 h; read-out: IL-17 activity
Description: Human peripheral blood mononuclear cells were plated (2.0×10^5 cells per well) in a 96-well plate in 45 μL. OpTimizer T Cell expansion media (Life Technologies) containing 20 ng/ml IL-2 and penicillin/streptomycin. The cells were treated with increasing concentrations of the test compound or DMSO (0.1%), and incubated at 37° C., 5% CO2 for 1 h before addition of 10× stock OKT3 antibody at 10 ug/ml in media. Triplicate wells were used for each concentration. Cells were incubated at 37° C., 5% CO2 for 6 h before the cells were harvested. At time of harvest, cells were pelleted by centrifugation at 800 rpm for 5 min. Cells were harvested using the mRNA Catcher PLUS kit according to manufacturer's instructions. The eluted mRNA was then used in a one-step quantitative real-time PCR reaction, using components of the RNA UltraSense™ One-Step Kit (Life Technologies) together with Applied Biosystems TaqMan® primer-probes for hIL-17 and Cyclophilin. Real-time PCR plates were run on a ViiA™ 7 real time PCR machine (Applied Biosystems), data was analyzed, normalizing the Ct values for hIL-17 to an internal control, prior to determining the fold induction of each unknown sample, relative to the control.

| Structure (SMILES) | IC50 (hIL-6 mRNA) [nM] | IC50 (Human AML MV-4-11 cells) [nM] | IC50 [1] [nM] | IC50 [2] [nM] | IC50 (hIL-17 mRNA) [nM] | c-myc activity [2] | Cell Proliferation activity (Human AML MV-4-11 cells) |
| --- | --- | --- | --- | --- | --- | --- | --- |
| Cc1noc(C)c1-c1c[nH]c(=O)c(NC(C)c2ccccn2)c1 (stereo not shown) [Example 20, 5-(3,5-dimethylisoxazol-4-yl)-3-((1-(pyridin-2-yl)ethyl)amino)pyridin-2(1H)-one] | 300 to 3000 | 300 to 3000 | ≤ 300 | 300 to 3000 | 300 to 3000 | – | – |
| Cc1noc(C)c1-c1c[nH]c(=O)c(NCc2ccccn2)c1 [Example 17, 5-(3,5-dimethylisoxazol-4-yl)-3-((pyridin-2-ylmethyl)amino)pyridin-2(1H)-one] | 300 to 3000 | 3000 to 30000 | ≤ 300 | 300 to 3000 | 300 to 3000 | – | – |
| Cc1noc(C)c1-c1c[nH]c(=O)c(N[C@H](C)c2ccccn2)c1 (single isomer, unassigned) [Example 42] | 300 to 3000 | 300 to 3000 | ≤ 300 | – | – | Not Active | – |
| Cc1noc(C)c1-c1c[nH]c(=O)c(NCc2cccc3ncccc23)c1 [Example 39, 5-(3,5-dimethylisoxazol-4-yl)-3-((quinolin-5-ylmethyl)amino)pyridin-2(1H)-one] | ≤ 300 | 300 to 3000 | ≤ 300 | 300 to 3000 | – | – | – |
| Cc1noc(C)c1-c1c[nH]c(=O)c(N[C@@H](C)c2ccccn2)c1 (single isomer, unassigned) [Example 41] | 300 to 3000 | 3000 to 30000 | ≤ 300 | 3000 to 30000 | – | – | – |
| Cc1noc(C)c1-c1c[nH]c(=O)c(NCc2nc3ccccc3s2)c1 [Example 40, 3-((benzo[d]thiazol-2-ylmethyl)amino)-5-(3,5-dimethylisoxazol-4-yl)pyridin-2(1H)-one] | 300 to 3000 | 3000 to 30000 | 300 to 3000 | 300 to 3000 | – | – | – |
| Cc1noc(C)c1-c1c[nH]c(=O)c(NCc2ccccc2)c1 [Example 4, 3-(benzylamino)-5-(3,5-dimethylisoxazol-4-yl)pyridin-2(1H)-one] | 300 to 3000 | 300 to 3000 | ≤ 300 | 300 to 3000 | 300 to 3000 | – | – |
| Cc1noc(C)c1-c1c[nH]c(=O)c(NCc2ccc3ccccc3n2)c1 [Example 35, 5-(3,5-dimethylisoxazol-4-yl)-3-((quinolin-2-ylmethyl)amino)pyridin-2(1H)-one] | 300 to 3000 | 300 to 3000 | ≤ 300 | 3000 to 30000 | – | – | – |
| Cc1noc(C)c1-c1c[nH]c(=O)c(NCc2ccncc2)c1 [Example 11, 5-(3,5-dimethylisoxazol-4-yl)-3-((pyridin-4-ylmethyl)amino)pyridin-2(1H)-one] | 300 to 3000 | 3000 to 30000 | 300 to 3000 | 3000 to 30000 | – | – | – |
| Cc1noc(C)c1-c1c[nH]c(=O)c(NCc2ccc(C#N)cc2)c1 [Example 9, 4-(((5-(3,5-dimethylisoxazol-4-yl)-2-oxo-1,2-dihydropyridin-3-yl)amino)methyl)benzonitrile] | 300 to 3000 | 3000 to 30000 | ≤ 300 | 300 to 3000 | – | – | – |
| Cc1ncccc1Oc1cc(-c2c(C)noc2C)cnc1O [Example 43, 5-(3,5-dimethylisoxazol-4-yl)-3-((2-methylpyridin-3-yl)oxy)pyridin-2-ol] | 3000 to 30000 | – | 300 to 3000 | – | – | Not Active | Not Active |
| Cc1noc(C)c1-c1c[nH]c(=O)c(NCc2ccsc2)c1 [Example 13, 5-(3,5-dimethylisoxazol-4-yl)-3-((thiophen-3-ylmethyl)amino)pyridin-2(1H)-one] | 300 to 3000 | 300 to 3000 | ≤ 300 | 300 to 3000 | – | – | – |
| Cc1noc(C)c1-c1c[nH]c(=O)c(NCc2ccc(I)cc2)c1 [Example 24, 5-(3,5-dimethylisoxazol-4-yl)-3-((4-iodobenzyl)amino)pyridin-2(1H)-one] | 3000 to 30000 | – | ≤ 300 | – | – | Not Active | Not Active |
| Cc1noc(C)c1-c1c[nH]c(=O)c(Nc2cccc(F)c2)c1 [Example 3, 5-(3,5-dimethylisoxazol-4-yl)-3-((3-fluorophenyl)amino)pyridin-2(1H)-one] | 300 to 3000 | 3000 to 30000 | 300 to 3000 | 300 to 3000 | – | – | – |
| Cc1noc(C)c1-c1c[nH]c(=O)c(NCc2ccc(Cl)cc2)c1 [Example 8, 3-((4-chlorobenzyl)amino)-5-(3,5-dimethylisoxazol-4-yl)pyridin-2(1H)-one] | 300 to 3000 | 3000 to 30000 | ≤ 300 | 3000 to 30000 | – | – | – |
| Cc1noc(C)c1-c1c[nH]c(=O)c(NCc2ncccc2Cl)c1 [Example 37, 3-(((3-chloropyridin-2-yl)methyl)amino)-5-(3,5-dimethylisoxazol-4-yl)pyridin-2(1H)-one] | 300 to 3000 | – | 300 to 3000 | – | – | Not Active | Not Active |
